Measurements taken from patent US20250228239A1, “MOLECULES HAVING PESTICIDAL UTILITY, AND INTERMEDIATES, COMPOSITIONS, AND PROCESSES, RELATED THERETO” (priority 2024, published 2025).

Legend:
Type in all cases: in vivo
[1] = tested on: Beet Armyworm (Spodoptera exigua, LAPHEG); assay: Bioassays on Beet Armyworm (BAW), 128-well diet tray assay; conditions: Spodoptera exigua; Table ABC: Biological Results; species BAW; read-out: BAW
Procedure, shortened: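 Percent larval mortality, averaged across eight wells, scored after five to seven days at 25° C. under 14:10 light-dark. Each well held one to five second instars feeding on diet dosed at 50 μg/cm^2 with compound from 90:10 acetone-water, solvent dried off.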

[2] = tested on: Cabbage Looper (Trichoplusia ni, TRIPNI); assay: Bioassays on Cabbage Looper (CL), 128-well diet tray assay; conditions: Trichoplusia ni; Table ABC: Biological Results; species CL; read-out: CL
Procedure, shortened: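 Diet tray, 2nd instar, 1–5 larvae/well; 50 μg/cm^2 compound surface-applied (acetone:water 90:10), dried; 8 wells/treatment; 25° C, 14:10 L:D, 5–7 d; % mortality, mean of 8 wells.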

[3] = tested on: Yellow Fever Mosquito (Aedes aegypti, AEDSAE); conditions: Table ABC: Biological Results; species YFM
Procedure, shortened: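 Compounds from DMSO master plates (4000 ppm stock) diluted in 90:10 water/acetone, then dispensed into six replicate plates and infested with ~1-day-old Aedes aegypti larvae in liver-powder water. Held covered at room temperature for 3 days; each well scored for larval mortality and graded on a rating scale.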

SMILES | pest or weed control at 50 µg/cm2 [1] [%] | pest or weed control at 50 µg/cm2 [2] [%] | YFM [3]
CC(=O)Nc1c(F)ccc(NC(=O)c2cc(NC(=O)[C@H]3[C@H](c4ccc(F)c(C(F)(F)F)c4)C3(Cl)Cl)ccc2Cl)c1Cl [F1161, N-(3-Acetamido-2-chloro-4-fluorophenyl)-2-chloro-5-((1R,3R)-2,2-dichloro-3-(4-fluoro-3-(trifluoromethyl)phenyl)cyclopropane-1-carboxamido)benzamide] | 50 to 100 | 50 to 100 | A (80–100)
O=C(Nc1ccc(F)c(NC(=O)C(F)(F)F)c1F)c1cc(NC(=O)[C@H]2[C@H](c3ccc(F)c(C(F)(F)F)c3)C2(Cl)Cl)ccc1Cl [F1169, 2-chloro-5-((1R,3R)-2,2-dichloro-3-(4-fluoro-3-(trifluoromethyl)phenyl)cyclopropane-1-carboxamido)-N-(2,4-difluoro-3-(2,2,2-trifluoroacetamido)phenyl)benzamide] | 50 to 100 | 50 to 100 | A (80–100)
O=C(Nc1ccc(F)c(NC(=O)C(F)(F)Cl)c1F)c1cc(NC(=O)[C@H]2[C@H](c3ccc(F)c(C(F)(F)F)c3)C2(Cl)Cl)ccc1Cl [F1170, 2-Chloro-N-(3-(2-chloro-2,2-difluoroacetamido)-2,4-difluorophenyl)-5-((1R,3R)-2,2-dichloro-3-(4-fluoro-3-(trifluoromethyl)phenyl)cyclopropane-1-carboxamido)benzamide] | 50 to 100 | 50 to 100 | A (80–100)
O=C(Nc1ccc(F)c(NC(=O)C(Cl)Cl)c1F)c1cc(NC(=O)[C@H]2[C@H](c3ccc(F)c(C(F)(F)F)c3)C2(Cl)Cl)ccc1Cl [F1174, 2-Chloro-5-((1R,3R)-2,2-dichloro-3-(4-fluoro-3-(trifluoromethyl)phenyl)cyclopropane-1-carboxamido)-N-(3-(2,2-dichloroacetamido)-2,4-difluorophenyl)benzamide] | 50 to 100 | 50 to 100 | A (80–100)
O=C(Nc1ccc(F)c(NC(=O)C(F)F)c1F)c1cc(NC(=O)[C@H]2[C@H](c3ccc(F)c(C(F)(F)F)c3)C2(Cl)Cl)ccc1Cl [F1175, 2-Chloro-5-((1R,3R)-2,2-dichloro-3-(4-fluoro-3-(trifluoromethyl)phenyl)cyclopropane-1-carboxamido)-N-(3-(2,2-difluoroacetamido)-2,4-difluorophenyl)benzamide] | 50 to 100 | 50 to 100 | A (80–100)
NCCCC(=O)Nc1c(F)ccc(NC(=O)c2cc(NC(=O)[C@H]3[C@H](c4ccc(Cl)c(Cl)c4)C3(Cl)Cl)ccc2Cl)c1F [F1201, N-(3-(4-Aminobutanamido)-2,4-difluorophenyl)-2-chloro-5-((1R,3R)-2,2-dichloro-3-(3,4-dichlorophenyl)cyclopropane-1-carboxamido)benzamide] | 50 to 100 | 50 to 100 | A (80–100)
O=C(Nc1ccc(F)cc1F)c1cc(NC(=O)C2C(c3cc(Cl)cc(S(F)(F)(F)(F)F)c3)C2(Cl)Cl)ccc1Cl (stereo not drawn) [F1233, cis-2-Chloro-5-(2,2-dichloro-3-(3-chloro-5-(pentafluoro-λ^6-sulfanyl)phenyl)cyclopropane-1-carboxamido)-I-(2,4-difluorophenyl)benzamide] | 50 to 100 | 50 to 100 | A (80–100)
CC(F)(F)C(=O)Nc1c(F)ccc(NC(=O)c2cc(NC(=O)[C@H]3[C@H](c4ccc(Cl)c(Cl)c4)C3(Cl)Cl)ccc2Cl)c1F [F1249, 2-Chloro-5-((1R,3R)-2,2-dichloro-3-(3,4-dichlorophenyl)cyclopropane-1-carboxamido)-N-(3-(2,2-difluoropropanamido)-2,4-difluorophenyl)benzamide] | 50 to 100 | 50 to 100 | A (80–100)
